Source: PubChem BioAssay AID624286 (Southern Research Specialized Biocontainment Screening …, 2012)
Calls of active or inactive are those of the source. The rule behind the calls is not given here.

tested on: VEEV TC-83 infected cells, virus titer reduction; assay: secondary cell-based VEEV TC-83 titer reduction, set 3 of VEEV inhibitor project (AID 624286); settings: at 5 µM; hits give low values

SMILES	log virus titer change
CCN1CCN(Cc2nc3ccc(I)cc3c(=O)n2-c2ccccc2)CC1	-0.33 (inactive)
O=c1c2cc([N+](=O)[O-])ccc2nc(CN2CCNCC2)n1-c1ccccc1	< -7.76
CCN1CCN(Cc2nc3ccc([N+](=O)[O-])cc3c(=O)n2-c2cccc(F)c2)CC1	< -7.11
CCN1CCN(Cc2nc3ccc([N+](=O)[O-])cc3c(=O)n2-c2ccc(F)cc2)CC1	-5.88
CN1CCN(Cc2nc3ccc([N+](=O)[O-])cc3c(=O)n2-c2ccccc2F)CC1	< -7.76
O=c1c2cc([N+](=O)[O-])ccc2nc(CN2CCNCC2)n1-c1ccccc1F	< -7.76
CCN1CCN(Cc2nc3ccc([N+](=O)[O-])cc3c(=O)n2-c2ccccc2)CC1	< -7.54
O=c1c2cc([N+](=O)[O-])ccc2nc(CN2CCCCC2)n1-c1ccccc1F	-0.366 (inactive)
